Data reported in article PMC5854716, “Synthesis, molecular docking, ctDNA interaction, DFT calculation and evaluation of antiproliferative and anti-Toxoplasma gondii activities of 2,4-diaminotriazine-thiazole derivatives” (Medicinal Chemistry Research, 2018).
In brackets after ≈: the same amount, converted by molar mass.

How the values were obtained:
[1] = test system: Toxoplasma gondii BK strain; assay: T. gondii tachyzoite intracellular proliferation in VERO host cells ([3H]uracil incorporation); assay type: cell-based; conditions: VERO host cells; for IC50 (50% inhibition of T. gondii proliferation in vitro) / IC50: GraphPad Prism curves; for activity at 0.9 µg/mL / activity at 1.8 µg/mL / activity at 3.9 µg/mL / activity at 7.8 µg/mL / activity at 15.6 µg/mL / activity at 31.2 µg/mL / activity at 62.5 µg/mL / activity at 125 µg/mL / IC50: Toxoplasma gondii; for IC50: read-out: IC50 (50% inhibition of T. gondii proliferation in vitro)
Procedure, shortened: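 VERO monolayers (2 × 10^4 cells/well) infected with 2 × 10^5 T. gondii tachyzoites/well in medium containing compounds at 0.9–125.00 μg/ml, with sulfadiazine at 5.0–2500.0 μg/ml as control, for 48 h at 37 °C. Growth measured by [3H]uracil incorporation over a further 18–20 h by scintillation counting, with host-cell-only cpm subtracted.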

[2] = test system: mouse L929 fibroblast; assay: Cell viability assay (MTT), L929; assay type: cell-based; conditions: 24 h; for CC30 L929: concentration for 30% proliferation inhibition
Protocol: (§1) The epithelial cell line VERO (ATCC-Catalog No. CCL-81^TM), derived from the kidney of the African green monkey, Cercopithecus aethiops and fibroblast cell line L-929 (ATCC-Catalog No. CCL-1^TM), derived from Mus musculus (http://www.atcc.org) were grown in Iscoves’s Modified Dulbecco’s Medium (IMDM) supplemented with 10% (v/v) fetal bovine serum (FBS), plus 2 mM L-glutamine, 100 U/ml penicillin, 100.00 µg/ml streptomycin, 5 × 10^−5 M 2-mercaptoethanol and maintained at 37 °C in a 10% CO2 atmosphere. Subcultures were performed via enzymatic cell dissociation in 0.25% trypsin. After dissociation, the cells were placed in culture medium at 4 °C with 10% FBS to inhibit the action of trypsin. The isolated cells were centrifuged for 10 min at 1000×g at 4 °C, and the cells were grown in new bottles. This procedure was repeated when cells reached a confluence of ~90%. All commercial reactants and solvents were purchased from either Sigma-Aldrich Laborchemikalien GmbH (Dzitko et al. [2014]).
(§2) Suspensions of the compounds 4a–l were freshly prepared (5 mg/ml DMSO) before the cells were exposed, and diluted to appropriate concentrations; 0.9, 1.8, 3.9, 7.8, 15.6, 31.2, 62.5, and 125.00 μg/ml with the culture medium. Cells treated with 2.5% DMSO-solvent served as a control in each experiment.
(§3) The effects of tested compounds on the viability of mouse fibroblasts L929 and […] VERO cells were evaluated using the MTT assay. The MTT assay was used according to international standards: ISO 10993-5:2009 (Tests for in vitro cytotoxicity; http://www.iso.org/iso/catalogue_detail.htm? csnumber = 36406). L929 and VERO cells were plated into 96-well plates at a density of 1.0 × 10^4/100 μl/well in culture medium and allowed to attach for 24 h before treatment. Afterwards, culture medium in the plates was replaced by 100 μl compounds suspension at concentration of 0–125 μg/ml and the cells were exposed for 24 h. Then 1 mg/ml MTT (50 μl/well) was added to each well and incubated at 37 °C, 10 % CO2 for 2 h. Mitochondrial dehydrogenases of viable cells reduce the yellowish water-soluble MTT to water-insoluble formazan crystals, which were solubilized with dimethyl sulfoxide (DMSO). The cell culture medium was aspirated cautiously, after which 150 μl DMSO was added to each well and mixed thoroughly. Optical density (OD) was read on the ELISA reader (Multiskan EX, Labsystems; http://www.mtxlsi.com/multiskan_EX.htm) at 550 nm. The results were expressed as percentage viability compared with the treated 2.5% DMSO controls. All experiments were performed in triplicate.

[3] = test system: VERO cells; assay: Cell viability assay (MTT), VERO; assay type: cell-based, Cercopithecus aethiops; conditions: 24 h; for CC30 VERO: concentration for 30% proliferation inhibition
Protocol: as §1, §2, §3

Row | Compound | T. gondii intracellular proliferation ([1]; 0.9 µg/ml) [%] | T. gondii intracellular proliferation ([1]; 1.8 µg/ml) [%] | T. gondii intracellular proliferation ([1]; 3.9 µg/ml) [%] | T. gondii intracellular proliferation ([1]; 7.8 µg/ml) [%] | T. gondii intracellular proliferation ([1]; 15.6 µg/ml) [%] | T. gondii intracellular proliferation ([1]; 31.2 µg/ml) [%] | T. gondii intracellular proliferation ([1]; 62.5 µg/ml) [%] | IC50 (50% inhibition of T. gondii proliferation in vitro) [1] [µg/mL] | Viability L929 ([2]; 0.9 µg/ml) [%] | CC30 L929 [2] [µg/mL] | CC30 VERO [3] [µg/mL] | activity at 0.9 µg/mL ([1]; 0.9 µg/ml) [%] | activity at 1.8 µg/mL ([1]; 1.8 µg/ml) [%] | activity at 3.9 µg/mL ([1]; 3.9 µg/ml) [%] | activity at 7.8 µg/mL ([1]; 7.8 µg/ml) [%] | activity at 15.6 µg/mL ([1]; 15.6 µg/ml) [%] | activity at 31.2 µg/mL ([1]; 31.2 µg/ml) [%] | activity at 62.5 µg/mL ([1]; 62.5 µg/ml) [%] | activity at 125 µg/mL ([1]; 125.0 µg/ml) [%] | IC50 [1] [µg/mL] | further results
1 | C/C(=N\Nc1nc(-c2ccc3[nH]c(=O)oc3c2)cs1)c1ccc(Nc2nc(N)nc(N)n2)cc1 [Compound 4l, (E)-6-(2-(2-(1-(4-(4,6-diamino-1,3,5-triazin-2-yloamino)phenyl)ethylidene)hydrazinyl)thiazol-4-yl)-benzo[d]oxazol-2(3H)-on] | 99.98 | 101.25 | 106.91 | 79.89 | 56.46 | 45.15 | 20.34 | 23.09 | 103.88 | >62.5 | >62.5 | – | – | – | – | – | – | – | – | – | Viability L929 ([2]; 1.8 µg/ml): 109.00%; Viability L929 ([2]; 3.9 µg/ml): 103.03%; Viability L929 ([2]; 7.8 µg/ml): 101.74%; Viability L929 ([2]; 15.6 µg/ml): 105.02%; Viability L929 ([2]; 31.2 µg/ml): 105.52%; Viability L929 ([2]; 62.5 µg/ml): 108.10%; Viability VERO ([3]; 0.9 µg/ml): 97.13%; Viability VERO ([3]; 1.8 µg/ml): 87.85%; Viability VERO ([3]; 3.9 µg/ml): 95.16%; Viability VERO ([3]; 7.8 µg/ml): 91.03%; Viability VERO ([3]; 15.6 µg/ml): 96.08%; Viability VERO ([3]; 31.2 µg/ml): 95.40%; Viability VERO ([3]; 62.5 µg/ml): 97.33%
2 | C/C(=N\Nc1nc(-c2ccc(F)cc2)cs1)c1ccc(Nc2nc(N)nc(N)n2)cc1 [Compound 4a, (E)-N^2-(4-(1-(2-(4-(4-fluorophenyl)-1,3-thiazol-2-yl)hydrazinylidene)ethyl)phenyl)-1,3,5-triazine-2,4,6-triamine] | – | – | – | – | – | – | – | – | – | >125.0 | >125.0 | 102 | 101 | 101 | 108 | 99.1 | 77.6 | 34.9 | 17.6 | 51.6 (≈ 119 µM) | –
3 | C/C(=N\Nc1nc(-c2ccccc2)cs1)c1ccc(Nc2nc(N)nc(N)n2)cc1 [Compound 4k, (E)-N^2-(4-(1-(2-(4-phenyl-1,3-thiazol-2-yl)hydrazinylidene)ethyl)phenyl)-1,3,5-triazine-2,4,6-triamine] | – | – | – | – | – | – | – | – | – | >125.0 | >125.0 | 100 | 100 | 96.3 | 85.9 | 63.6 | 49.4 | 36.1 | 17.7 | 31.5 (≈ 75.5 µM) | –
4 | C/C(=N\Nc1nc(-c2ccc(I)cc2)cs1)c1ccc(Nc2nc(N)nc(N)n2)cc1 [Compound 4e, (E)-N^2-(4-(1-(2-(4-(4-iodophenyl)-1,3-thiazol-2-yl)hydrazinylidene)ethyl)phenyl)-1,3,5-triazine-2,4,6-triamine] | – | – | – | – | – | – | – | – | – | >125.0 | >125.0 | 103 | 104 | 99.9 | 92.8 | 80.7 | 75.1 | 48.7 | 14.6 | 49.2 (≈ 90.5 µM) | –
5 | C/C(=N\Nc1nc(-c2ccc(NS(C)(=O)=O)cc2)cs1)c1ccc(Nc2nc(N)nc(N)n2)cc1 [Compound 4j, (E)-N-(4-(2-(2-(1-(4-(4,6-diamino-1,3,5-triazin-2-yloamino)phenyl)ethylidene)hydrazinyl)thiazol-4-yl)phenyl)-methanesulfonamide] | 99.93 | 100.25 | 99.58 | 89.65 | 78.25 | 67.01 | 46.07 | 59.87 | 98.90 | >125.0 | >125.0 | – | – | – | – | – | – | – | – | – | T. gondii intracellular proliferation ([1]; 125.0 µg/ml): 34.60%; Viability L929 ([2]; 1.8 µg/ml): 106.36%; Viability L929 ([2]; 3.9 µg/ml): 104.20%; Viability L929 ([2]; 7.8 µg/ml): 101.86%; Viability L929 ([2]; 15.6 µg/ml): 100.71%; Viability L929 ([2]; 31.2 µg/ml): 104.07%; Viability L929 ([2]; 62.5 µg/ml): 102.92%; Viability L929 ([2]; 125.0 µg/ml): 106.67%; Viability VERO ([3]; 0.9 µg/ml): 79.82%; Viability VERO ([3]; 1.8 µg/ml): 93.81%; Viability VERO ([3]; 3.9 µg/ml): 93.62%; Viability VERO ([3]; 7.8 µg/ml): 89.25%; Viability VERO ([3]; 15.6 µg/ml): 90.98%; Viability VERO ([3]; 31.2 µg/ml): 96.22%; Viability VERO ([3]; 62.5 µg/ml): 97.76%; Viability VERO ([3]; 125.0 µg/ml): 89.44%
6 | C/C(=N\Nc1nc(-c2ccc(C)cc2)cs1)c1ccc(Nc2nc(N)nc(N)n2)cc1 [Compound 4c, (E)-N^2-(4-(1-(2-(4-(4-tolyl)-1,3-thiazol-2-yl)hydrazinylidene)ethyl)phenyl)-1,3,5-triazine-2,4,6-triamine] | – | – | – | – | – | – | – | – | – | >125.0 | >125.0 | 102 | 102 | 110 | 100 | 86.2 | 58.6 | 40.1 | 30.9 | 51.4 (≈ 119 µM) | –
7 | CC(=O)Nc1ccc(-c2csc(N/N=C(\C)c3ccc(Nc4nc(N)nc(N)n4)cc3)n2)cc1 [Compound 4g, (E)-N^2-(4-(2-(2-(1-(4-(4,6-diamino-1,3,5-triazin-2-yloamino)phenyl)ethylidene)hydraziny)thiazol-4-yl)phenyl)-acetamide] | 100.01 | 100.69 | 69.35 | 66.62 | 46.71 | 42.95 | 41.74 | 18.70 | 102.34 | >125.0 | >125.0 | – | – | – | – | – | – | – | – | – | T. gondii intracellular proliferation ([1]; 125.0 µg/ml): 19.11%; Viability L929 ([2]; 1.8 µg/ml): 102.12%; Viability L929 ([2]; 3.9 µg/ml): 100.36%; Viability L929 ([2]; 7.8 µg/ml): 98.86%; Viability L929 ([2]; 15.6 µg/ml): 94.31%; Viability L929 ([2]; 31.2 µg/ml): 99.83%; Viability L929 ([2]; 62.5 µg/ml): 103.01%; Viability L929 ([2]; 125.0 µg/ml): 105.39%; Viability VERO ([3]; 0.9 µg/ml): 93.72%; Viability VERO ([3]; 1.8 µg/ml): 90.59%; Viability VERO ([3]; 3.9 µg/ml): 95.35%; Viability VERO ([3]; 7.8 µg/ml): 98.14%; Viability VERO ([3]; 15.6 µg/ml): 98.43%; Viability VERO ([3]; 31.2 µg/ml): 98.96%; Viability VERO ([3]; 62.5 µg/ml): 94.25%; Viability VERO ([3]; 125.0 µg/ml): 91.41%
